Entries after “also recorded” stand apart in the source; their conditions may differ.
How the values were obtained:
[1] = system: RML prions; format: cell-based; settings: for rebound of infectivity after treatment cessation (RML): 18 days post-infection, 6 days after treatment cessation; for infection of PK1 neuroblastoma cells by RML prions (PrPSc western blot): pretreated 3 days, treated 12 days after infection, 9 and 18 days post-infection
[2] = system: 22L prions; format: cell-based; settings: for rebound of infectivity after treatment cessation (22L): 18 days post-infection, 6 days after treatment cessation; for infection of PK1 neuroblastoma cells by 22L prions (PrPSc western blot): pretreated 3 days, treated 12 days after infection, 9 and 18 days post-infection
[3] = system: cell surface PrP on N2a cells; format: cell-based
[4] = system: cell surface PrP on LD9 cells; format: cell-based; settings: 24 hours
[5] = system: LD9 cells
[6] = system: RML scrapie-infected PK1 cells; format: cell-based; settings: 1 μg/ml PIPLC, 26 hours
[7] = system: cell surface PrP; settings: 1 μg/ml

**Q.** With `COc1ccc(CCN2CCC(Nc3nc4ccccc4n3Cc3ccc(F)cc3)CC2)cc1` [Astemizole] as the molecule, how does the “rebound of infectivity after treatment cessation (RML)” value [1] read?
**A.** no rebound of infectivity

**Q.** What about the “infection of PK1 neuroblastoma cells by RML prions (PrPSc western blot)” value [1] of the same molecule?
**A.** block infection

**Q.** And the “rebound of infectivity after treatment cessation (22L)” value [2]?
**A.** no rebound of infectivity

**Q.** What about the “infection of PK1 neuroblastoma cells by 22L prions (PrPSc western blot)” value [2] of the same molecule?
**A.** block infection

**Q.** What about the “reduction of cell surface PrP, confirmation by secondary screening” value (shortened to “reduction of cell surface PrP”) [3] of the same molecule?
**A.** confirmed; also recorded: active

**Q.** `C[C@H]1CCC/C=C/[C@@H]2C[C@H](O)C[C@H]2[C@H](O)/C=C/C(=O)O1` [BFA, Brefeldine A] was tested. Which “PrP expression, percentage of the DMSO control” value ([4]; 384-well screening plates) did it give?
**A.** 0%

**Q.** And the “toxicity to LD9 cells (cell viability, CELLTITER-GLO)” value [5]?
**A.** none of the tested doses of BFA were toxic

**Q.** How did the “reduction of cell surface PrP” value [3] turn out when `CC[C@H]1CN2CCc3cc(OC)c(OC)cc3[C@@H]2C[C@@H]1C[C@H]1NCCc2cc(OC)c(OC)cc21` [Emetine] was run?
**A.** active

**Q.** How did the “reduction of cell surface PrP” value [3] turn out when `CC[C@@H](C(=O)[C@@H](C)[C@@H](O)[C@H](C)CCc1ccc(C)c(O)c1C(=O)O)[C@H]1O[C@](CC)([C@H]2CC[C@](O)(CC)[C@H](C)O2)C[C@@H]1C` [Lasalocid sodium] was run?
**A.** confirmed; also recorded: active

**Q.** With `CC[C@@]1([C@@H]2O[C@@H]([C@H]3O[C@@](O)(CO)[C@H](C)C[C@@H]3C)C[C@@H]2C)CC[C@H]([C@]2(C)CC[C@]3(C[C@H](O)[C@@H](C)[C@@H]([C@@H](C)[C@@H](OC)[C@H](C)C(=O)O)O3)O2)O1` [Monensin] as the molecule, how does the “reduction of cell surface PrP” value [3] read?
**A.** active

**Q.** `C=CC[C@@H]1/C=C(\C)C[C@H](C)C[C@H](OC)[C@H]2O[C@@](O)(C(=O)C(=O)N3CCCC[C@H]3C(=O)O[C@H](/C(C)=C/[C@@H]3CC[C@@H](O)[C@H](OC)C3)[C@H](C)[C@@H](O)CC1=O)[C@H](C)C[C@@H]2OC` [Tacrolimus] was tested. Which “reduction of PrP expression in the primary assay” value ([4]; 20 μM) did it give?
**A.** 70%

**Q.** And the “rebound of infectivity after treatment cessation (RML)” value [1]?
**A.** no rebound of infectivity

**Q.** What about the “infection of PK1 neuroblastoma cells by RML prions (PrPSc western blot)” value [1] of the same molecule?
**A.** block infection

**Q.** What about the “rebound of infectivity after treatment cessation (22L)” value [2] of the same molecule?
**A.** no rebound of infectivity

**Q.** What about the “infection of PK1 neuroblastoma cells by 22L prions (PrPSc western blot)” value [2] of the same molecule?
**A.** block infection

**Q.** And the “reduction of cell surface PrP” value [3]?
**A.** confirmed

**Q.** And the “reduction of PrP in the secondary assay, IN Cell analyzer quantification” value ([3]; at 30 (unit not given))?
**A.** 73%

**Q.** And the “reduction of PrP in the secondary assay, flow cytometry” value ([3]; at 30 (unit not given))?
**A.** 75%

**Q.** With `CCCCCCCCCCCCCCCC[N+](C)(C)C` [cetrimonium] as the molecule, how does the “reduction of cell surface PrP” value [3] read?
**A.** active

**Q.** With “phosphatidylinositol phospholipase C [PIPLC]” as the molecule, how does the “RI200 (reciprocal of the cell number required to give 200 spots)” value [6] read?
**A.** 5×10^−4

**Q.** And the inhibition of infection ([6]; from RI200 values)?
**A.** 85%

**Q.** And the “cell surface PrP removed” value [7]?
**A.** approximately 50%

From patent US9612238B2 (priority 2011, dated 2017)
